Source: patent US20250082664A1, “NUCLEOSIDE FORMULATION” (PHION THERAPEUTICS LTD, priority 2021, published 2025)

Columns and labels:
[1] = Ioka T, et al. 2013; cited from earlier work
[2] = test system: BxPC-3 cells; experiment: Cell cycle analysis (propidium iodide, FACS); format: cell-based; settings: 48 hours following treatment, 2 μM (1 μg) for 5 h, manual formulations
Procedure: 1.5×10^5 BxPC-3 cells were plated in 6-well plates (Nunc, UK) and left to adhere for 24 h. Cells were transferred to serum free media for 24-h, to ensure synchronisation of cells. Subsequently, cells were incubated with RALA/dFdCTP nanoparticles at a concentration of 2 μM (1 μg) for 5 h before removal of treatment media and the addition of fresh complete media. 48 h following treatment, cells were trypsinsed and fixed in ice-cold 70% ethanol for 1 hour at 4° C. Cells were washed twice in Phosphate Buffered Saline (PBS) for 5 min, before resuspension in 500 μL PBS and the addition of 50 μL of 100 μg/ml RNase (Invitrogen, UK). 10 minutes prior to running samples on fluorescence-activated cell sorting (FACS), 10 μl of a 100 μg/ml stock of propidium iodide (PI) was added. Controls include: untreated; dCTP (negative control); RALA/dCTP (RALA control); dFdCTP (drug control); and gemcitabine (comparator control).
A cell cycle analysis following treatment with RALA/dFdCTP was undertaken. If dFdCTP had been successfully delivered to cells, it would be incorporated during DNA polymerase, preventing DNA chain elongation. This would ultimately prevent cells from actively proliferating. This means that during cell cycling, the cycle will be arrested at the S-phase. Therefore, if there are a higher percentage of the cells in the (G0/G1+−S) phases than compared to the G2 phase, it is an indicator that dFdCTP has affected the cell cycle.

[3] = test system: red blood cell (RBC); experiment: Haemolysis assay; format: cell-based; settings: ovine RBC, equivalent of 10-30 μg dFdCTP, 1 h at 37° C., isotonic trehalose solution
Procedure: Defibrinated ovine whole blood (5 ml, TCS Biosciences Ltd, UK) was centrifuged at 500 g in citrate-phosphate buffer (15 ml, 0.1 M citric acid, C6HsO7, and 0.2 M disodium hydrogen phosphate, Na2HPO4) for 20 min to separate erythrocytes. The erythrocytes were subsequently washed three times with 20 mL of citrate-phosphate buffer by centrifugation and re-suspended in citrate-phosphate buffer solution at a concentration of 1×10^8 cells/mL. A Countess II automated cell counter (ThermoFisher, UK) was used to count erythrocytes by first diluting the erythrocyte suspension 1:10,000 in buffer. Subsequently, isotonic solutions (of osmolality in the range 290-310 mOsmol/kg) of RALA/dFdCTP (MR2.0) nanoparticles mixed with trehalose, or dFdCTP and trehalose was added to the erythrocyte suspension, with the equivalent of 10-30 μg dFdCTP added, and the solution incubated for 1 h at 37° C. Following incubation, the erythrocyte suspensions were centrifuged for 90 s at 400 g to form a cell pellet. Absorbance of the supernatant was measured via a Nanodrop 2000c UV-Vis spectrophotometer (Thermo Scientific, UK) at 541 nm. 1% Triton X-100 was used as a positive control representing 100% haemolysis; and citrate-phosphate buffer at pH 7.4 was used as a negative control.

SMILES: Nc1ccn([C@@H]2O[C@H](CO)[C@@H](O)C2(F)F)c(=O)n1 [Gemcitabine, 2′,2′-difluoro-2′-deoxycytidine]
- overall clinical response rate [1]: 6%
- Cells in (G0/G1 + S) Phase [2]: 60.2%

SMILES: Nc1ccn([C@H]2C[C@H](O)[C@@H](COP(=O)(O)OP(=O)(O)OP(=O)(O)O)O2)c(=O)n1 [dCTP, deoxycytidine triphosphate]
- Cells in (G0/G1 + S) Phase [2]: 49.9%

SMILES: Nc1ccn([C@@H]2O[C@H](COP(=O)(O)OP(=O)(O)OP(=O)(O)O)[C@@H](O)C2(F)F)c(=O)n1 [dFdCTP, 2′,2′-difluorodeoxycytidine 5′-triphosphate]
- Cells in (G0/G1 + S) Phase [2]: 66.4%
- haemolysis [3]: > 20%
